Experimental data published in patent publication US20140249218A1, “ADMINISTRATION OF INGENOL MEBUTATE” (LEO Laboratories Limited, priority 2013, published 2014).

What was measured:
[1] = format: physicochemical; details: room temperature
Protocol: For the experiment, a slurry mixture of forms A, X and Y in cyclohexane was stirred for about 48 hours at room temperature. After about 24 hours, the complete sample was transformed into form A (see FIG. 17).
A polymorphic crystalline form of the compound of Formula 1 was characterized and identified as form A″ The stability of form A at room temperature was confirmed by the slurry experiments at room temperature.

[2] = Stress milling (mortar and pestle); format: physicochemical; details: manual grinding about 2, 5 and 10 mins
Protocol: Crystalline ingenol mebutate is subjected to stress milling to investigate its physico-chemical stability. In the study, crystalline ingenol mebutate is manually ground using a mortar and pestle for durations of about 2, about 5 and about 10 mins.
Crystalline ingenol mebutate was subjected to stress milling (manually using a mortar and pestle) for durations of about 2, about 5 and about 10 mins.

[3] = Skin permeation of [3H]-PEP005, human split-thickness skin; format: in vitro ADME; details: gel ca 0.05% w/w
Protocol: (§1) The rate and extent of absorption of [^3H]-ingenol mebutate over a 24 h exposure period following topical application of the gel to Wistar (WI) rat, Sprague Dawley (SD) rat, Göttingen mini-pig and human split-thickness skin was also assessed.

[4] = Skin permeation of [3H]-PEP005, Sprague Dawley rat split-thickness skin; format: in vitro ADME, Sprague Dawley (SD) rat
Protocol: as §1

[5] = Skin permeation of [3H]-PEP005, Wistar rat split-thickness skin; format: in vitro ADME, Wistar (WI) rat
Protocol: as §1

skin = assay: UV irradiation studies (photoirritation, photoallergy); format: in vivo; details: ingenol mebutate 0.01%, single and multiple applications
Source text: Studies have been conducted to assess the effects of UV irradiation on the skin following single and multiple applications of ingenol mebutate, 0.01%. […] However, excessive exposure to sunlight (including sunlamps and tanning beds) should be avoided or minimized during use of TRADEMARK Gel due to the nature of the disease.

rats = assay: Teratogenicity study, intravenous route, rats; format: in vivo, rat; details: 5 μg/kg/day = 30 μg/m^2/day
Protocol: (§2) Teratogenicity studies with ingenol mebutate were performed by the intravenous route in rats and rabbits.
(§3) In rats, ingenol mebutate was not associated with fetal developmental effects at doses up to 5 μg/kg/day (30 μg/m^2/day).

[6] = Teratogenicity study, intravenous route, rabbits; format: in vivo, rabbit; details: female, rabbit, in vivo, 12 μg/m^2/day, read-out: fetal NOAEL
Protocol: as §2, §3
(§4) The fetal NOAEL was 1 μg/kg/day (12 μg/m^2/day).

rabbits = assay: Teratogenicity study, intravenous route, rabbits; format: in vivo, rabbit; details: rabbits
Protocol: as §2, §3, §4

tumor cells = assay: Direct cytotoxic effect at high concentrations; format: cell-based; details: e.g., 100 μg/mL
Source text: (§5) Ingenol mebutate is a pleiotropic effector that exerts a direct cytotoxic effect on tumor cells and modulates Protein Kinase C (PKC) isoforms.

human endothelial cells = assay: PKC dependent activation of endothelial cells, neutrophil adhesion in vitro; format: cell-based; details: e.g., 10 to 100 ng/mL
Source text: as §5

[7] = tested on: isolated human keratinocytes; assay: Exposure of isolated keratinocytes in vitro; format: cell-based; details: subclinical concentrations
mouse skin = assay: Application to mouse skin in vivo, inflammatory mediators; details: subclinical concentrations
[8] = tested on: squamous cell carcinoma and melanoma tumor; assay: Mouse xenograft squamous cell carcinoma and melanoma tumor models, topical; format: in vivo
tumors = assay: Mouse xenograft models, intratumoral injection; format: in vivo
receptors and enzymes = assay: Off-target activity in various in vitro assays
[9] = tested on: human cytochrome P450 isoforms; assay: In vitro cytochrome P450 inhibition/induction; format: in vitro ADME
In vitro Ames test = format: cell-based
Protocol: (§6) Carcinogenic evaluations of ingenol mebutate have not been conducted. Ingenol mebutate was not mutagenic in an in vitro Ames test, mouse lymphoma assay, and in vivo rat micronucleus test. Ingenol mebutate was positive in the Syrian hamster embryo (SHE) cell transformation assay at concentrations≧0.1 μg/mL.

mouse lymphoma = assay: Mouse lymphoma assay; format: cell-based
Protocol: as §6

rat = assay: In vivo rat micronucleus test
Protocol: as §6

[10] = tested on: Syrian hamster embryo (SHE) cell; assay: Syrian hamster embryo (SHE) cell transformation assay; format: cell-based
Protocol: as §6

skin cancer cells = details: via rapid mitochondrial disruption and primary necrosis; normal cells less sensitive; cited from earlier work
[11] = Conversion of solvate forms upon heating; format: physicochemical
[12] = Skin permeation of [3H]-PEP005, mini-pig split-thickness skin; format: in vitro ADME, Göttingen mini-pig
Protocol: as §1
The maximum hourly flux was 0.44, 0.80, 2.09, and 6.12 ng equiv./cm^2/h for human, mini-pig, SD and WI rat skin, respectively. […] The flux profile for mini-pig was dissimilar to the other species/strains. […] The other three species/strains had similar flux profiles with lag times of ca 1, 2 and 3 h for the human, SD and WI rat skin, respectively. This was followed by steady state flux from 4-24 h, 6-24 h and 8-24 h, respectively. Steady state flux was 0.39, 2.01 and 5.87 ng equiv./cm^2/h for the human, SD and WI rat skin, respectively. […] These differences with the mini-pig group compared to the other three skin groups may have been attributed to the preparation of the split-thickness skin. Due to the hair follicle depth in mini-pig skin, split-thickness skin was prepared at a depth of ca […] compared to ca […] for the other skin groups. Therefore, the thicker layer of dermis for the mini-pig skin may have acted as a reservoir for [3H]-PEP005 prior to partitioning into the receptor fluid.

[13] = Sprague Dawley Rat skin, gel ca 0.05% w/w
[14] = Wistar Rat skin, gel ca 0.05% w/w
[15] = Mini-Pig skin, gel ca 0.05% w/w, NO = not observed
[16] = mini-pig skin vs human skin, % applied dose
[17] = mini-pig skin, gel ca 0.05% w/w
[18] = SD rat skin vs human skin, % applied dose
[19] = WI rat skin vs human skin, % applied dose

C/C=C(/C)C(=O)O[C@H]1C(C)=C[C@]23C(=O)[C@@H](C=C(CO)[C@@H](O)[C@]12O)[C@H]1[C@@H](C[C@H]3C)C1(C)C [form A, ingenol mebutate]
relative stability of forms A, X and Y [1]: most stable form at room temperature | physico-chemical stability on milling [2]: remained unaltered

C/C=C(/C)C(=O)O[C@H]1C(C)=C[C@]23C(=O)[C@@H](C=C(CO)[C@@H](O)[C@]12O)[C@H]1[C@@H](C[C@H]3C)C1(C)C [ingenol mebutate, (1 aR,2S,5R,5aS,6S,8aS,9R,10aR)-5,5a-dihydroxy-4-(hydroxymethyl)-1,1,7,9-tetramethyl-11-oxo-1a,2,5,5a,6,9,10,10a-octahydro-1H2,8a-methanocyclopenta[a]cyclopropa[e]cyclodecen-6-yl(2Z)-2-methylbut-2-enoate]
Lag Time [3]: 1 h | Period of Steady State Flux [3]: 4.24 h | Steady State Flux [3]: 0.39 ng equiv./cm^2/h | Lag Time [4, 13]: 2 h | Period of Steady State Flux [4, 13]: 6.24 h | Steady State Flux [4, 13]: 2.01 ng equiv./cm^2/h | Lag Time [5, 14]: 3 h | Period of Steady State Flux [5, 14]: 8.24 h | Steady State Flux [5, 14]: 5.87 ng equiv./cm^2/h | photoirritation or photoallergy effects (skin): did not demonstrate any potential for photoirritation or photoallergy effects | doses not associated with fetal developmental effects (rats): up to 5 μg/kg/day | NOAEL [6]: 0.001 mg/kg/day | doses at which maternal toxicity (increased breathing) was observed (rabbits; 1 μg/kg/day = 12 μg/m^2/day): ≥ 1 µg/kg/day | doses with slight increase in incidence of incompletely ossified cervical vertebral arches (rabbits; 2 μg/kg/day = 24 μg/m^2/day): ≥ 2 µg/kg/day | embryo-fetal findings (rabbits; 4 μg/kg/day (48 μg/m^2/day), marginal, not statistically significant): slight increase in embryonic deaths, an increase in jugular fusion to the maxilla and a variation in the origin of arteries arising from the aortic arch | effect on cells at high concentrations (tumor cells): induces mitochondrial swelling and loss of cell membrane integrity leading to cell death | effect on endothelial cells at subclinical concentrations (human endothelial cells): stimulates PKC dependent activation of human endothelial cells to support neutrophil adhesion | effect on keratinocytes [7]: cytokine release and specific PKC-mediated neutrophil activation | release of inflammatory mediators in mouse skin (mouse skin): induced the release of inflammatory mediators IL-8/MIP-2 and TNF-α resulting in neutrophil recruitment and activation | effect on tumors [8]: removes tumors and prevents tumor recurrence | immune response after intratumoral injection (tumors): stimulated a tumor-specific CD8+T cell response with anti-tumor activity against distant secondary tumors | off-target activity (receptors and enzymes): did not inhibit or stimulate receptors and enzymes | inhibition or induction of cytochrome P450 isoforms [9]: does not inhibit or induce human cytochrome P450 isoforms | mutagenicity (In vitro Ames test): not mutagenic | mutagenicity (mouse lymphoma): not mutagenic | mutagenicity (rat): not mutagenic | concentrations positive in SHE cell transformation assay ([10]; Syrian hamster, Syrian hamster embryo (SHE) cells): ≥ 100 ng/mL | cell transformation result ([10]; concentrations≧0.1 μg/mL): positive | toxicity for skin cancer cells (skin cancer cells): highly toxic

C/C=C(/C)C(=O)O[C@H]1C(C)=C[C@]23C(=O)[C@@H](C=C(CO)[C@@H](O)[C@]12O)[C@H]1[C@@H](C[C@H]3C)C1(C)C [form X, ingenol mebutate]
time to conversion to form A in slurry ([1]; slurry of forms A, X and Y in c-hexane): about 24 hours | behaviour upon heating [11]: converted into form A upon heating

C/C=C(/C)C(=O)O[C@H]1C(C)=C[C@]23C(=O)[C@@H](C=C(CO)[C@@H](O)[C@]12O)[C@H]1C(C[C@H]3C)C1(C)C (stereo in doubt) [[^3H]-ingenol mebutate]
Lag Time [3]: ~1 h | Period of Steady State Flux [3]: 4 to 24 h | Steady State Flux [3]: 0.39 ng equiv./cm^2/h | maximum hourly flux [3]: 0.44 ng equiv./cm^2/h | time post dose at which maximum flux was achieved [3]: 16 h | Unabsorbed Dose ([3]; 24 h exposure): 101.09 % Applied Dose | Unabsorbed Dose ([12]; Mini-Pig skin, gel ca 0.05% w/w, 24 h exposure): 93.35 % Applied Dose | Lag Time [12, 15]: no apparent lag time | Steady State Flux [12, 15]: no apparent lag time or steady state flux observed | dermal delivery compared to human skin, fold greater [12, 16]: ~7.9 fold | total absorption compared to human skin, fold less [12, 16]: ~1.4 fold | maximum hourly flux [12, 17]: 0.80 ng equiv./cm^2/h | time post dose at which maximum flux was achieved [12, 17]: 1 h | steady state flux compared to human skin, fold greater ([4]; SD rat skin vs human skin): ~5.2 fold | dermal delivery compared to human skin, fold greater [4, 18]: ~5.1 fold | total absorption compared to human skin, fold greater [4, 18]: ~4.9 fold | maximum hourly flux ([4]; SD rat skin, gel ca 0.05% w/w): 2.09 ng equiv./cm^2/h | Lag Time [4, 13]: ~2 h | Period of Steady State Flux [4, 13]: 6 to 24 h | Steady State Flux [4, 13]: 2.01 ng equiv./cm^2/h | Unabsorbed Dose ([4]; Sprague Dawley Rat skin, gel ca 0.05% w/w, 24 h exposure): 94.40 % Applied Dose | steady state flux compared to human skin, fold greater ([5]; WI rat skin vs human skin): ~15.1 fold | dermal delivery compared to human skin, fold greater [5, 19]: ~9.2 fold | total absorption compared to human skin, fold greater [5, 19]: ~13.8 fold | maximum hourly flux ([5]; WI rat skin, gel ca 0.05% w/w): 6.12 ng equiv./cm^2/h | time post dose at which maximum flux was achieved ([5]; WI rat skin, gel ca 0.05% w/w): 16 h | Lag Time [5, 14]: ~3 h | Period of Steady State Flux [5, 14]: 8 to 24 h | Steady State Flux [5, 14]: 5.87 ng equiv./cm^2/h | Unabsorbed Dose ([5]; Wistar Rat skin, gel ca 0.05% w/w, 24 h exposure): 90.31 % Applied Dose
